The text below walks through data of article PMC11768359, “2-Aminothiophene Derivatives—New Drug Candidates Against Leishmaniasis: Drug Design, Synthesis, Pharmacomodulation, and Antileishmanial Activity” (Pharmaceuticals, 2025).

“And” between values parts separate entries of the source, which are not always exact repeats. Equal values may be shown once. A value given as a limit tells only on which side of the number the result lay.

The first series has as its system promastigotes of L. amazonensis. Put plainly: Growth inhibition of promastigote forms of L. amazonensis (MTT). Type of series: cell-based, Leishmania amazonensis. Particulars: 72 h, 26 °C. How it is done: (§1) The in vitro tests utilized Leishmania amazonensis parasites (IFLA/BR/67/PH8). These leishmania cell lines were obtained from Oswaldo Cruz Foundation (FIOCRUZ)/Brazil. The promastigote forms were cultivated in Schneider’s insect medium at 26 °C in a biological oxygen demand (BOD) incubator. Schneider’s insect medium was supplemented with 20% fetal bovine serum (FBS) and 1% penicillin (100 U/mL) and streptomycin (µg/mL) (complete Schneider). Next, we differentiated them from promastigote forms by changing the conditions to Schneider’s insect medium supplemented with 5% FBS, pH 4.6, and a temperature of 32 °C to obtain axenic amastigote forms of L. amazonensis. Meanwhile, RAW 264.7 macrophages were cultured in […] cell culture flasks using DMEM medium supplemented with 10% FBS, 1% penicillin 100 U/mL, and 100 μg/mL streptomycin (complete DMEM) and incubated at 37 °C and 5% CO2.
(§2) Parasite growth inhibition was evaluated using the methodology described by Rodrigues et al. (2015). Cultures of logarithmically growing promastigote and axenic amastigote forms (1 × 10^6 parasites/mL) were incubated in 96-well plates containing 100 µL of supplemented Schneider’s medium in triplicate. Serial concentrations of 2-amino-thiophene and 2-amino-selenophene derivatives (10.00–0.156 μM) and the reference drugs meglumine antimoniate (500–40,000 μg/mL), amphoterecinB (0.1–2 μM), and pentamidine (3.12–100 µM) were added. BNP was used as a negative control. The cultures were incubated in a biological oxygen demand oven (model Eletrolab EL202, São Paulo, Brazil) at 26 °C for promastigotes and 32 °C for axenic amastigotes for 72 h. Then, 10 μL of MTT (5 mg/mL) was added to each well to colorimetrically evaluate growth inhibition. The plate was subsequently incubated for a further 4 h, followed by adding 50 μL of 10% sodium dodecyl sulfate solution for […] before the optical density of the culture was read on a microplate spectrophotometer reader. The reading was taken at the test and reference wavelengths of 540 and 620 nm using a microplate spectrophotometer. The negative control consisted of 0.2% […] with BNP, considered to be 100% viable.
The IC50 is the midpoint of a concentration-inhibition curve. The compound `NC(=O)c1ccsc1N` [Compound 2] displayed an IC50 of over 10 µM.

In turn, `CCOC(=O)c1ccsc1N` [Compound 3] showed an IC50 of over 10 µM.

Take `NC(=O)c1c(N)sc2c1CCCC2` [Compound 7]: the IC50 is over 10 µM.

Turning to `NC(=O)c1c(N)sc2c1CCCCCC2` [Compound 8], the IC50 was over 10 µM.

Take `CCCC1CCc2c(sc(N)c2C#N)C1` (stereo not drawn) [Compound 15]: the IC50 amounted to 9.2 µM.

Consider `N#Cc1c(N)sc2c1CCN(Cc1ccccc1)C2` [Compound 18], for which the “IC50 Promastigotes” value was “inactive compound”.

In the case of `CCOC(=O)c1c(N)sc2c1CCC(C)C2` (stereo not drawn) [Compound 20], the IC50 is over 10 µM.

`CCCC1CCc2c(sc(/N=C/c3c[nH]c4ccc(Br)cc34)c2C#N)C1` (stereo not drawn) [Compound 28] displayed an IC50 of 8.12 µM.

Consider `N#Cc1c(/N=C/c2c[nH]c3ccccc23)[se]c2c1CCCC2` [Compound 32], for which the “IC50 Promastigotes” value is listed as “not active up to the highest concentration evaluated”.

With `N#Cc1c(/N=C/c2c[nH]c3cccc([N+](=O)[O-])c23)[se]c2c1CCCC2` [Compound 34], the IC50 worked out at 2.14 µM.

Take `Cc1ccc2[nH]cc(/C=N/c3[se]c4c(c3C#N)CCCC4)c2c1` [Compound 35]: the “IC50 Promastigotes” value is on record as “not active up to the highest concentration evaluated”.

The compound `Cc1cccc2c(/C=N/c3[se]c4c(c3C#N)CCCC4)c[nH]c12` [Compound 36] came in with an IC50 of 2.92 µM.

For the compound `N#Cc1c(/N=C/c2c[nH]c3ccc(Br)cc23)[se]c2c1CCCC2` [Compound 38], the IC50 is 3.49 µM.

In turn, `COc1cccc2[nH]cc(/C=N/c3[se]c4c(c3C#N)CCCC4)c12` [Compound 39] had an IC50 of 2.15 µM.

For `COc1ccc2[nH]cc(/C=N/c3[se]c4c(c3C#N)CCCC4)c2c1` [Compound 40], the “IC50 Promastigotes” value is reported as “not active up to the highest concentration evaluated”.

On to “Meglumine antimoniate [reference compound]”, for which the IC50 is 70.3 µM and 58.9 µM and 67.9 µM.

Staying with this series, now noted: Leishmania amazonensis, 72 h, 26 °C.
With `Cc1cc(C#N)c(N)s1` [Compound 1], the IC50 is over 10 µM.

Regarding `NC(=O)c1ccsc1N` [Compound 2], the IC50 was at least 10 µM.

Take `CCOC(=O)c1ccsc1N` [Compound 3]: the IC50 was at least 10 µM.

Compound `N#Cc1c(N)sc2c1CCC2` [Compound 4] came in with a 50% inhibitory concentration (IC50) of over 10 µM.

On to `NC(=O)c1c(N)sc2c1CCCC2` [Compound 7], for which the IC50 is at least 10 µM.

In the case of `NC(=O)c1c(N)sc2c1CCCCCC2` [Compound 8], the IC50 was at least 10 µM.

`CCOC(=O)c1c(N)sc2c1CCC2` [Compound 9] yielded an IC50 of over 10 µM.

In turn, `CCOC(=O)c1c(N)sc2c1CCCC2` [Compound 10] showed an IC50 of over 10 µM.

Compound `CCCC1CCc2c(sc(N)c2C#N)C1` (stereo not drawn) [Compound 15] showed an IC50 of under 10 µM.

As for `N#Cc1c(N)sc2c1CCN(Cc1ccccc1)C2` [Compound 18], the IC50 is over 10 µM.

Consider `CCOC(=O)c1c(N)sc2c1CCC(C)C2` (stereo not drawn) [Compound 20], for which the IC50 is at least 10 µM.

With `CCCC1CCc2c(sc(/N=C/c3c[nH]c4ccc(Br)cc34)c2C#N)C1` (stereo not drawn) [Compound 28], the IC50 was under 10 µM.

Turning to `N#Cc1c(/N=C/c2c[nH]c3ccccc23)[se]c2c1CCCC2` [Compound 32], the half-maximal inhibitory concentration (IC50) is over 10 µM.

In turn, `N#Cc1c(/N=C/c2c[nH]c3cccc([N+](=O)[O-])c23)[se]c2c1CCCC2` [Compound 34] returned an IC50 of under 3.5 µM.

`Cc1ccc2[nH]cc(/C=N/c3[se]c4c(c3C#N)CCCC4)c2c1` [Compound 35]: the IC50 was over 10 µM.

As to `Cc1cccc2c(/C=N/c3[se]c4c(c3C#N)CCCC4)c[nH]c12` [Compound 36], the IC50 is under 3.5 µM.

In the case of `N#Cc1c(/N=C/c2c[nH]c3ccc(Br)cc23)[se]c2c1CCCC2` [Compound 38], the IC50 was under 3.5 µM.

For `COc1cccc2[nH]cc(/C=N/c3[se]c4c(c3C#N)CCCC4)c12` [Compound 39], the IC50 was under 3.5 µM.

As to `COc1ccc2[nH]cc(/C=N/c3[se]c4c(c3C#N)CCCC4)c2c1` [Compound 40], the half-maximal inhibitory concentration (IC50) was over 10 µM.

The subject of the next series is axenic amastigotes of L. amazonensis. As to the kind of experiment: Growth inhibition of axenic amastigote forms of L. amazonensis (MTT). Particulars: 72 h, 32 °C. Format: cell-based, Leishmania amazonensis. On the procedure:
as §1, §2
`CCCC1CCc2c(sc(N)c2C#N)C1` (stereo not drawn) [Compound 15] showed an IC50 of 9.3 µM.

The same series, now with this note: Leishmania amazonensis, 72 h, 32 °C.
In turn, `Cc1cc(C#N)c(N)s1` [Compound 1] came in with an IC50 of over 10 µM.

In the case of `NC(=O)c1ccsc1N` [Compound 2], the IC50 was over 10 µM.

`CCOC(=O)c1ccsc1N` [Compound 3] gave an IC50 of over 10 µM.

`N#Cc1c(N)sc2c1CCC2` [Compound 4] showed an IC50 of over 10 µM.

`NC(=O)c1c(N)sc2c1CCCC2` [Compound 7] came in with an IC50 of over 10 µM.

As for `NC(=O)c1c(N)sc2c1CCCCCC2` [Compound 8], the IC50 is over 10 µM.

`CCCC1CCc2c(sc(N)c2C#N)C1` (stereo not drawn) [Compound 15] registered an IC50 of under 10 µM.

As to `N#Cc1c(N)sc2c1CCN(Cc1ccccc1)C2` [Compound 18], the IC50 is over 10 µM.

On to `CCCC1CCc2c(sc(/N=C/c3c[nH]c4ccc(Br)cc34)c2C#N)C1` (stereo not drawn) [Compound 28], for which the 50% inhibitory concentration (IC50) was over 10 µM.

Test system in the next series: not listed separately
As to the kind of experiment: Cytotoxicity in macrophages (MTT). Type of series: cell-based. Particulars: mouse, RAW 264.7 macrophages. How it is done: as §1
First, 100 μL DMEM medium complete with 1 × 10^6 macrophages (RAW 264.7) was added to each well of a 96-well plate. RAW 264.7 macrophages were obtain from ATCC: code TIB-71^TM. The plate was placed in an incubator (37 °C, 5% CO2) (Sanyo, model COM-15A, Sanyo Electric Co., Osaka, Japan) for 4 h to promote cell adhesion. After this period, two washes were conducted with previously heated DMEM medium (37 °C) to remove non-adhered cells. 2-amino-thiophene and 2-amino-selenophene derivatives were added to wells at serial concentrations of 400 to 25 µM and then incubated for 48 h. Next, 10 μL of MTT at a […] of 5 mg/mL were added to each well and incubated for 4 h. The plate was then shaken for 30 min and read at the test and reference wavelengths of 550 and 620 nm, respectively, in a plate reader. DMEM medium supplemented with 0.5% DMSO was used as a negative control and considered as 100% macrophage viability. The selectivity index for each treatment was calculated as the ratio between the concentration of cytotoxicity of RAW 264.7 macrophages (CC50) and the 50% inhibitory concentration (IC50) or effective concentration (EC50), as measured for the different evolutionary forms of L. amazonensis.
As usually defined, the CC50 is the concentration giving 50% cytotoxicity. In turn, `N#Cc1c(/N=C/c2c[nH]c3cccc([N+](=O)[O-])c23)[se]c2c1CCCC2` [Compound 34] gave a half-maximal cytotoxic concentration (CC50) at 48 h of 189 µM.

With `Cc1cccc2c(/C=N/c3[se]c4c(c3C#N)CCCC4)c[nH]c12` [Compound 36], the CC50 at 48 h is 186 µM.

Consider `N#Cc1c(/N=C/c2c[nH]c3ccc(Br)cc23)[se]c2c1CCCC2` [Compound 38], for which the midpoint of cytotoxicity, the CC50 at 48 h, lay at 239 µM.

`COc1cccc2[nH]cc(/C=N/c3[se]c4c(c3C#N)CCCC4)c12` [Compound 39] gave a CC50 at 48 h of 178 µM.

Another series deals with promastigotes of L. amazonensis.
Experiment: not given
The conditions noted are these: L. amazonensis; read-out: IC50 against promastigotes; cited from earlier work.
“Meglumine antimoniate [reference compound]”: the IC50 is 70.3 µM.

The test system of the next series is axenic amastigotes of L. amazonensis.
Experiment: not given
The conditions noted are these: L. amazonensis; read-out: IC50 against axenic amastigotes; cited from earlier work.
Regarding “Meglumine antimoniate [reference compound]”, the IC50 is 2.77 µM.
